Values joined by “and” are separate entries in the source; they are usually repeats but may differ in a detail not shown here. Identical values can stand only once. Inconclusive results and toxic doses are left out. How the source made its calls: active means survival T/C of 150% or more; inactive means T/C below 125% in these data.
System: P388 leukemia ip, CD2F1 mice, survival T/C
Experiment: NCI In Vivo Anticancer Drug Screen. Data for tumor model P388 Leukemia (intraperitoneal) in CD2F1 (CDF1) mice
Conditions: endpoint: median survival time, higher = longer survival
Method in brief: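 Mice carrying the transplanted tumor received test compound or vehicle. Survival was recorded in each group, and the value is the treated-group measurement divided by that of the vehicle-treated control group.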

[1] = dose: 50.0 mg/kg/injection, schedule: Q01DX009 (ip), vehicle: saline
[2] = dose: 100.0 mg/kg/injection, schedule: Q01DX009 (ip), vehicle: saline
[3] = dose: 60.0 mg/kg/injection, schedule: Q01DX005 (ip), vehicle: saline with Tween-80
[4] = dose: 200.0 mg/kg/injection, schedule: Q01DX009 (ip), vehicle: saline with Tween-80
[5] = dose: 25.0 mg/kg/injection, schedule: Q01DX009 (ip), vehicle: saline
[6] = dose: 100.0 mg/kg/injection, schedule: Q04DX003 (ip), vehicle: saline with Tween-80
[7] = dose: 240.0 mg/kg/injection, schedule: Q01DX005 (ip), vehicle: saline with Tween-80
[8] = dose: 60.0 mg/kg/injection, schedule: Q01DX005 (ip), vehicle: saline
[9] = dose: 120.0 mg/kg/injection, schedule: Q01DX005 (ip), vehicle: saline
[10] = dose: 240.0 mg/kg/injection, schedule: Q01DX005 (ip), vehicle: saline
[11] = dose: 100.0 mg/kg/injection, schedule: Q01DX001 (ip), vehicle: saline
[12] = dose: 200.0 mg/kg/injection, schedule: Q01DX001 (ip), vehicle: saline
[13] = dose: 400.0 mg/kg/injection, schedule: Q01DX001 (ip), vehicle: saline

Measured: T/C

O=C(O)COCC(F)(F)C(F)(F)C(F)(F)COCC(=O)O
inactive: dose: 176.0 mg/kg/injection, schedule: Q04DX003 (ip), vehicle: saline 100 % of control | dose: 264.0 mg/kg/injection, schedule: Q04DX003 (ip), vehicle: saline 91 % of control | dose: 400.0 mg/kg/injection, schedule: Q04DX003 (ip), vehicle: saline 100 % of control

CC(=O)Nc1ccc(SSc2ccc(NC(C)=O)s2)s1
inactive: dose: 50.0 mg/kg/injection, schedule: Q01DX001 (ip), vehicle: saline with Tween-80 86 % of control | dose: 200.0 mg/kg/injection, schedule: Q01DX001 (ip), vehicle: saline with Tween-80 90 % of control | dose: 400.0 mg/kg/injection, schedule: Q01DX001 (ip), vehicle: saline with Tween-80 97 % of control

O=C(O)CS(=O)(=O)CCCCS(=O)(=O)CC(=O)O
inactive: [1] 104 % of control | [2] 103 % of control | dose: 200.0 mg/kg/injection, schedule: Q01DX009 (ip), vehicle: saline 100 % of control

O=C(OCC1OC(O)(COC(=O)c2ccccc2)C(OC(=O)c2ccccc2)C1OC(=O)c1ccccc1)c1ccccc1 (stereo not drawn)
inactive: dose: 12.5 mg/kg/injection, schedule: Q01DX005 (ip), vehicle: Klucel (hydroxypropylcellulose) (HPC) 97 % of control | dose: 25.0 mg/kg/injection, schedule: Q01DX005 (ip), vehicle: Klucel (hydroxypropylcellulose) (HPC) 98 % of control | dose: 50.0 mg/kg/injection, schedule: Q01DX005 (ip), vehicle: Klucel (hydroxypropylcellulose) (HPC) 90 % of control and 92 % of control

Cc1cccc(C)c1Nc1nnc(-c2ccccc2)s1
inactive: dose: 15.0 mg/kg/injection, schedule: Q01DX005 (ip), vehicle: saline with Tween-80 104 % of control | dose: 30.0 mg/kg/injection, schedule: Q01DX005 (ip), vehicle: saline with Tween-80 103 % of control | [3] 94 % of control

CC(Nc1ccc(Br)cc1[N+](=O)[O-])C(=O)O (stereo not drawn)
inactive: dose: 50.0 mg/kg/injection, schedule: Q01DX009 (ip), vehicle: saline with Tween-80 110 % of control | [4] 100 % of control

CC(=O)N(Cc1cnc2nc(N)[nH]c(=O)c2n1)c1ccc(C(=O)NC(CCC(=O)O)C(=O)O)cc1 (stereo not drawn)
inactive: [5] 90 % of control | [1] 100 % of control | [2] 101 % of control and 104 % of control

O=C=C=O
inactive: dose: 1:2.0 dilution, schedule: Q01DX001 (ip), vehicle: none 102 % of control | dose: 1:4.0 dilution, schedule: Q01DX001 (ip), vehicle: none 104 % of control | dose: 1:8.0 dilution, schedule: Q01DX001 (ip), vehicle: none 99 % of control

C/C(=C/c1cc(Br)c(O)c(Br)c1)[N+](=O)[O-]
inactive: dose: 6.25 mg/kg/injection, schedule: Q01DX009 (ip), vehicle: saline 100 % of control | dose: 12.5 mg/kg/injection, schedule: Q01DX009 (ip), vehicle: saline 110 % of control and 90 % of control | dose: 12.5 mg/kg/injection, schedule: Q04DX003 (ip), vehicle: saline 106 % of control | [5] 109 % of control and 90 % of control | dose: 25.0 mg/kg/injection, schedule: Q04DX003 (ip), vehicle: saline 100 % of control | dose: 50.0 mg/kg/injection, schedule: Q04DX003 (ip), vehicle: saline 100 % of control | [2] 90 % of control | [6] 98 % of control

CC(N=c1cc2n(-c3ccc(Cl)cc3)c3ccccc3nc-2cc1Nc1ccc(Cl)cc1)c1ccccc1 (stereo not drawn)
inactive: dose: 1.87 mg/kg/injection, schedule: Q01DX005 (ip), vehicle: saline with Tween-80 98 % of control | dose: 3.75 mg/kg/injection, schedule: Q01DX005 (ip), vehicle: saline with Tween-80 101 % of control | dose: 7.5 mg/kg/injection, schedule: Q01DX005 (ip), vehicle: saline with Tween-80 104 % of control and 86 % of control | [7] 88 % of control

c1ccc(-c2ccc[n+](C[n+]3cccc(-c4ccccn4)c3)c2)nc1
inactive: [8] 109 % of control | [9] 104 % of control | [10] 106 % of control

CCCn1c2c(c3ccccc3c1=O)C(=O)c1ccccc1-2
inactive: dose: 6.25 mg/kg/injection, schedule: Q01DX005 (ip), vehicle: saline with Tween-80 95 % of control | dose: 12.5 mg/kg/injection, schedule: Q01DX005 (ip), vehicle: saline with Tween-80 88 % of control | dose: 25.0 mg/kg/injection, schedule: Q01DX005 (ip), vehicle: saline with Tween-80 93 % of control

Cc1nc2cc(C)[nH]c(=O)n2n1
inactive: dose: 50.0 mg/kg/injection, schedule: Q01DX005 (ip), vehicle: saline with Tween-80 105 % of control | dose: 100.0 mg/kg/injection, schedule: Q01DX005 (ip), vehicle: saline with Tween-80 107 % of control | dose: 200.0 mg/kg/injection, schedule: Q01DX005 (ip), vehicle: saline with Tween-80 104 % of control

O=C(NO)c1ccccc1O
inactive: dose: 100.0 mg/kg/injection, schedule: Q01DX009 (ip), vehicle: saline with Tween-80 110 % of control | [6] 86 % of control | [4] 100 % of control | dose: 200.0 mg/kg/injection, schedule: Q04DX003 (ip), vehicle: saline with Tween-80 90 % of control | dose: 400.0 mg/kg/injection, schedule: Q01DX009 (ip), vehicle: saline with Tween-80 110 % of control | dose: 400.0 mg/kg/injection, schedule: Q04DX003 (ip), vehicle: saline with Tween-80 100 % of control

CN(C)c1ccc(C(=N)Cc2ccc3ccccc3n2)cc1
inactive: dose: 37.5 mg/kg/injection, schedule: Q01DX009 (ip), vehicle: Klucel (hydroxypropylcellulose) (HPC) 106 % of control | dose: 50.0 mg/kg/injection, schedule: Q01DX009 (ip), vehicle: Klucel (hydroxypropylcellulose) (HPC) 92 % of control | dose: 75.0 mg/kg/injection, schedule: Q01DX009 (ip), vehicle: Klucel (hydroxypropylcellulose) (HPC) 98 % of control | dose: 100.0 mg/kg/injection, schedule: Q01DX009 (ip), vehicle: Klucel (hydroxypropylcellulose) (HPC) 95 % of control | dose: 150.0 mg/kg/injection, schedule: Q01DX009 (ip), vehicle: Klucel (hydroxypropylcellulose) (HPC) 109 % of control | dose: 200.0 mg/kg/injection, schedule: Q01DX009 (ip), vehicle: Klucel (hydroxypropylcellulose) (HPC) 100 % of control

O=C1C=CC(CCCCCn2ccc(=O)[nH]c2=O)C(=O)N1 (stereo not drawn)
inactive: [11] 90 % of control | [12] 100 % of control | [13] 100 % of control

COC(=O)C1(CC(=O)C(c2ccccc2)c2ccccc2)NC(=S)NC(=O)C1C#N (stereo not drawn)
inactive: [8] 98 % of control | [9] 95 % of control | [10] 100 % of control

CN(C)CCSc1cc(O)c2c(c1O)C(=O)c1ccccc1C2=O
inactive: dose: 12.5 mg/kg/injection, schedule: Q04DX003 (ip), vehicle: water 107 % of control | dose: 25.0 mg/kg/injection, schedule: Q01DX009 (ip), vehicle: water 102 % of control | dose: 25.0 mg/kg/injection, schedule: Q04DX003 (ip), vehicle: water 98 % of control | dose: 50.0 mg/kg/injection, schedule: Q01DX009 (ip), vehicle: water 103 % of control | dose: 50.0 mg/kg/injection, schedule: Q04DX003 (ip), vehicle: water 102 % of control | dose: 100.0 mg/kg/injection, schedule: Q01DX009 (ip), vehicle: water 102 % of control | dose: 100.0 mg/kg/injection, schedule: Q04DX003 (ip), vehicle: water 102 % of control | dose: 200.0 mg/kg/injection, schedule: Q01DX009 (ip), vehicle: water 97 % of control | dose: 200.0 mg/kg/injection, schedule: Q04DX003 (ip), vehicle: water 118 % of control

CN1CC(C2(O)CCN(C)C2=O)C(O)C1=O (stereo not drawn)
inactive: [11] 104 % of control | [12] 97 % of control

OCC1(C2CCCNC2)OCCO1 (stereo not drawn)
inactive: dose: 25.0 mg/kg/injection, schedule: Q01DX005 (ip), vehicle: saline 100 % of control | dose: 50.0 mg/kg/injection, schedule: Q01DX005 (ip), vehicle: saline 111 % of control and 97 % of control | dose: 100.0 mg/kg/injection, schedule: Q01DX005 (ip), vehicle: saline 107 % of control | dose: 200.0 mg/kg/injection, schedule: Q01DX005 (ip), vehicle: saline 108 % of control

NC(=S)NN=C1/C(=N\O)CCC/C1=N/O
inactive: [3] 97 % of control | dose: 120.0 mg/kg/injection, schedule: Q01DX005 (ip), vehicle: saline with Tween-80 97 % of control | [7] 97 % of control

CN(C)c1nc(N(C)C)nc(N(C)C=O)n1
inactive: [11] 99 % of control | [12] 97 % of control | [13] 100 % of control

From PubChem BioAssay AID330 (DTP/NCI, 2004)
